# Experimental data taken from article PMC8944596, “Determination of the Relationships between the Chemical Structure and Antimicrobial Activity of a GAPDH-Related Fish Antimicrobial Peptide and Analogs Thereof” (Antibiotics, 2022).
# Ends that are not written are not given here.
# Legend:
# Z. rouxii LL12_088 = assay: Antifungal microdilution MIC/MFC; type: cell-based, Zygosaccharomyces rouxii; settings: 99.9% inhibition of yeast growth by CFU counts on PDA
# Experimental: Mucor racemosus LMA-722, Paecilomyces sp. 5332-9a, and Aspergillus niger 3071-13 were used as filamentous fungal strains. Saccharomyces boulardii 27169, Rhodotorula mucilaginosa 27173, and Zygosaccharomyces rouxii LL12_088 were used as yeast strains. Fungal strains were sub-cultured on potato dextrose agar (PDA) (BD, Sparks, USA) plates, at 25 °C, at least two times, before being used for antimicrobial and membrane permeabilization testing.
# MICs were also tested using microdilutions in 96-well plates for fungal strains. The protocol used was roughly the same as that described for bacterial strains. RPMI 1640 (Sigma-Aldrich, St. Louis, MO, USA), buffered with MOPS (Fisher Scientific, Fair Lawn, NJ, USA) (0.164 M, pH = 7), was used instead of MHB, according to CLSI guidelines. Potato dextrose broth was used for microplates inoculated with Z. rouxii yeast. For filamentous fungi, conidia were harvested from 7-day cultures and diluted in buffered RPMI 1640 to obtain a suspension containing 5 × 10^4 CFU/mL, as assessed with a COUNTESS II FL automatic cell counter (Thermo Fisher Scientific, Waltham, MA, USA). […] Plates were then incubated for 24 (yeasts) or 48 (filamentous fungi) h at 25 °C. […] Natamycin (Sigma-Aldrich, St. Louis, MO, USA) was used as positive control for all fungal strains. […]
# E. coli ATCC 25922 [1] = assay: Broth microdilution MIC/MBC; type: cell-based; settings: Escherichia coli, ATCC25922, MHB, 5 × 10^5 CFU/mL, 16 h at 37 °C, no visible growth, three independent repetitions, two technical replicates
# Experimental: Escherichia coli ATCC 25922, Escherichia coli ATCC 11229, Pseudomonas aeruginosa ATCC 27853, Aeromonas salmonicida subsp. salmonicida 69 R3, Aeromonas salmonicida subsp. salmonicida 69 R5 [53], Micrococcus luteus LMA-272, and Listeria ivanovii ATCC 19119 were used for antibacterial activity testing. Details on these strains used in this study are included in Table 6. All these strains were cultivated in tryptic soy broth (TSB) (BD, Sparks, NV, USA), except for L. ivanovii, which was grown in brain heart infusion (BHI) broth (BD, Sparks, USA). All bacterial strains were grown at 37 °C, except for the two A. salmonicida strains, which were incubated at 20 °C. Strains were sub-cultured at least twice, before being used for antimicrobial and membrane permeabilization assays.
# MICs for bacterial strains were determined using a broth microdilution protocol. Two-fold dilutions of peptide solutions ([…]) were made in Mueller Hinton Broth (MHB) (Oxoid, Basingstoke, UK) in 96-well polypropylene clear round bottom microplates (Corning Inc., Corning, NY, USA). […] Final volumes in the wells were of 200 μL. […] After reading of the MICs, 20 μL of the wells that were showing no visible bacterial growth were inoculated on tryptic soy agar (TSA) (or BHI agar for Listeria ivanovii) plates, which were then incubated at the appropriate temperature for 24 h. […]
# E. coli ATCC 25922 [2] = test system: E. coli ATCC 25922; parameters: method as in PMID 1605597; settings: cited from earlier work
# P. aeruginosa ATCC 27853 = test system: P. aeruginosa ATCC 27853; parameters: method as in PMID 1605597; settings: cited from earlier work
molecule,measurement,setting,value
HGKKVEIVAIND [Analog 4],"MFC, Z. rouxii LL12_088",Z. rouxii LL12_088,n.f.a. (No fungicidal activity)
O=C(N[C@H](CO)[C@H](O)c1ccc([N+](=O)[O-])cc1)C(Cl)Cl [Chloramphenicol],MIC,E. coli ATCC 25922 [1],4 µg/mL
magainin-2,"MIC, E. coli ATCC 25922",E. coli ATCC 25922 [2],50 µg/mL
same,"MIC, P. aeruginosa ATCC 27853",P. aeruginosa ATCC 27853,50 µg/mL
